In US20250170147A1, “NEUROACTIVE STEROIDS FOR TREATMENT OF GASTROINTESTINAL DISEASES OR CONDITIONS” (Sage Therapeutics, Inc., priority 2022, published 2025):
“Also recorded” adds a separate entry of the source. Marks after values point to notes of the source that are not given here.

Key:
[1] = tested on: patients with major depressive disorder; conditions: meta-analysis, cited from earlier work; for rates of gastrointestinal adverse reactions compared to placebo: 15 most commonly used antidepressants in MDD; for tolerability on the gastrointestinal tract among antidepressants: patients with MDD
[2] = clinical trials; meta-analysis; cited from earlier work
[3] = tested on: adults with MDD; assay: Study NCT04476030: suicidal ideation/behavior by C-SSRS; assay type: in vivo, human; conditions: compared to baseline
Protocol: (§1) A randomized, double-blind, parallel-group, active/placebo-controlled study (NCT04476030) in participants with major depressive disorder (MDD) was conducted. The study evaluated the efficacy and safety of zuranolone 50 mg co-initiated with standard-of-care (SOC) antidepressant therapies (ADTs) (zuranolone+ADT) vs placebo co-initiated with SOC ADT (placebo+ADT) in adults with MDD. Patients were randomized 1:1 to once-daily, blinded zuranolone+ADT or placebo+ADT for 14 days then continued open-label SOC ADT for 28 more days.
(§2) The proportion of patients who had suicidal ideation at any post baseline visit from Day 3 through Day 42 ranged from 4.8% to 11.7% in the zuranolone+ADT group and from 6.0% to 12.4% in the placebo+ADT group. No patients who received placebo+ADT experienced suicidal behavior.

[4] = tested on: adults with MDD; assay: Study NCT04476030: withdrawal symptoms by Physician Withdrawal Checklist (PWC-20); assay type: in vivo, human
Protocol: as §1, §2

[5] = tested on: adults with MDD; assay: Study NCT04476030: treatment-emergent adverse events (safety set); assay type: in vivo, human; conditions: for tolerability: zuranolone 50 mg once daily 14 days co-initiated with SOC ADT
Protocol: as §1
An AE could therefore be any unfavorable and unintended sign (including an abnormal laboratory finding), symptom or disease temporally associated with the use of a medicinal (investigational) product whether or not related to the medicinal (investigational) product. In clinical studies, an AE could include an undesirable medical condition occurring at any time, including baseline or washout periods, even if no study treatment had been administered.
A treatment emergent adverse event (TEAE) was defined as an AE with onset after the start of investigational product (IP), or any worsening of a pre-existing medical condition/AE with onset after the start of IP and throughout the study. The term IP included any Sage IP, a comparator, or a placebo administered in a clinical study.
The investigator made the determination of relationship to the IP for each AE (not related, related). The following definitions should have been considered when evaluating the relationship of AEs and SAEs to the IP.

[6] = ADT continuation period, of 212
[7] = double blinded treatment period
[8] = double blinded treatment period, of 212
[9] = safety set n=212, listed as zuranolone+ADT
[10] = zuranolone 50 mg + ADT, safety set n=212, whole study

For COc1ccc2cccc(CCNC(C)=O)c2c1 [agomelatine], the “rates of gastrointestinal adverse reactions compared to placebo” value (shortened to “rates … compared to placebo”) [1] is listed as “higher rates”.
For CC(NC(C)(C)C)C(=O)c1cccc(Cl)c1 (stereo not shown) [bupropion], the “rates … compared to placebo” value [1] is listed as “higher rates”.
In the case of CN(C)CCCC1(c2ccc(F)cc2)OCc2cc(C#N)ccc21 (stereo not shown) [citalopram], the “rates … compared to placebo” value [1] is given as “higher rates”.
For CN(C)CC(c1ccc(O)cc1)C1(O)CCCCC1 (stereo not shown) [desvenlafaxine], the “rates … compared to placebo” value [1] is given as “higher rates”.
For CNCC[C@H](Oc1cccc2ccccc12)c1cccs1 [duloxetine], the “rates … compared to placebo” value [1] is given as “higher rates”.
In the case of CN(C)CCC[C@@]1(c2ccc(F)cc2)OCc2cc(C#N)ccc21 [escitalopram], the “rates … compared to placebo” value [1] is listed as “higher rates” and the “tolerability on the gastrointestinal tract among antidepressants” value [1] is listed as “least tolerated”.
In the case of CNCCC(Oc1ccc(C(F)(F)F)cc1)c1ccccc1 (stereo not shown) [fluoxetine], the “rates … compared to placebo” value [1] is listed as “higher rates”.
For COCCCC/C(=N\OCCN)c1ccc(C(F)(F)F)cc1 [fluvoxamine], the “rates … compared to placebo” value [1] is given as “higher rates”.
For CCN(CC)C(=O)[C@@]1(c2ccccc2)C[C@H]1CN [levomilnacipran], the “rates … compared to placebo” value [1] is given as “higher rates”.
In the case of CN1CCN2c3ncccc3Cc3ccccc3C2C1 (stereo not shown) [mirtazapine], the “rates … compared to placebo” value [1] is given as “higher rates”.
In the case of Fc1ccc([C@@H]2CCNC[C@H]2COc2ccc3c(c2)OCO3)cc1 [paroxetine], the “rates … compared to placebo” value [1] is listed as “higher rates”.
In the case of CCOc1ccccc1OC(c1ccccc1)C1CNCCO1 (stereo not shown) [reboxetine], the “rates … compared to placebo” value [1] is given as “higher rates”.
For CN[C@H]1CC[C@@H](c2ccc(Cl)c(Cl)c2)c2ccccc21 [sertraline], the “rates … compared to placebo” value [1] is listed as “higher rates”, the “tolerability on the gastrointestinal tract among antidepressants” value [1] is listed as “least tolerated” and the “incidence of diarrhea compared to other SSRIs and venlafaxine” value [2] is listed as “higher incidence of diarrhea”.
In the case of COc1ccc(C(CN(C)C)C2(O)CCCCC2)cc1 (stereo not shown) [venlafaxine], the “rates … compared to placebo” value [1] is given as “higher rates” and the “rates of nausea and vomiting compared to SSRIs and duloxetine” value [2] is given as “higher rates of nausea and vomiting”.
In the case of Cc1ccc(Sc2ccccc2N2CCNCC2)c(C)c1 [vortioxetine], the “rates … compared to placebo” value [1] is listed as “higher rates”.
In the case of zuranolone [Zuranolone + ADT], the “suicidal ideation/behavior signals vs baseline (C-SSRS)” value [3] is reported as “No increases from baseline; also recorded: No signals for an increased suicidal ideation or suicidal behavior”, the “mean decrease from baseline in PWC-20 total score” value ([4]; Day 18) is reported as −0.6 and the “mean decrease from baseline in PWC-20 total score” value ([4]; Day 21) is reported as −0.8. For the same compound, the “withdrawal symptoms (PWC-20)” value ([4]; after discontinuation) was “No increases from baseline; also recorded: No signals for an evidence of withdrawal symptoms”, the “Sexual Dysfunction TEAE, incidence” value ([5]; ADT continuation period) was 0.9% and the “Sleep Disorders TEAE, incidence” value ([5]; ADT continuation period) was 3.8%. The “TEAEs during the ADT continuation period, incidence” value ([5]; ADT continuation period) was 31.6%, the “Sexual Dysfunction TEAE, number of patients” value [5, 6] was 2 and the “Sleep Disorders TEAE, number of patients” value [5, 6] was 8. The “TEAEs during the ADT continuation period, number of patients” value [5, 6] was 67, the “incidence of gastrointestinal AEs (e.g., nausea, diarrhea) vs placebo+ADT” value ([5]; comparison with placebo+ADT) was “lower incidence” and the “Sexual Dysfunction TEAE, incidence” value [5, 7] was 3.8%. For the same compound, the “Sleep Disorders TEAE, incidence” value [5, 7] was 9.9%, the “Sexual Dysfunction TEAE, number of patients” value [5, 8] was 8 and the “Sleep Disorders TEAE, number of patients” value [5, 8] was 21. The “TEAEs during the double-blind treatment period, incidence” value ([5]; double-blind treatment period) was 68.4%, the “TEAEs during the double-blind treatment period, number of patients” value ([5]; double-blind treatment period, of 212) was 145 and the “Decreased Appetite TEAE, incidence” value ([5]; safety set n=212) was “(5.7%)”. The “Decreased Appetite TEAE, number of patients” value ([5]; safety set n=212) was 12, the “Diarrhea TEAE, incidence” value ([5]; safety set n=212) was “(6.1%)” and the “Diarrhea TEAE, number of patients” value ([5]; safety set n=212) was 13. The “Dizziness TEAE, number of patients” value ([5]; safety set n=212) was 28, the “Dose reduction due to TEAE, incidence” value ([5]; safety set n=212) was “(9.4%)” and the “Dose reduction due to TEAE, number of patients” value ([5]; safety set n=212) was 20. For the same compound, the “Dry Mouth TEAE, incidence” value ([5]; safety set n=212) was “(9.4%)”, the “Dry Mouth TEAE, number of patients” value ([5]; safety set n=212) was 20 and the “Fatigue TEAE, incidence” value ([5]; safety set n=212) was “(8.5%)”. The “Fatigue TEAE, number of patients” value ([5]; safety set n=212) was 18, the “Headache TEAE, number of patients” value ([5]; safety set n=212) was 25 and the “Insomnia TEAE, incidence” value ([5]; safety set n=212) was “(9.9%)”. For the same compound, the “Insomnia TEAE, number of patients” value ([5]; safety set n=212) was 21, the “Nausea TEAE, number of patients” value ([5]; safety set n=212) was 19 and the “Sedation TEAE, incidence” value ([5]; safety set n=212) was “(5.7%)”. For the same compound, the “Sedation TEAE, number of patients” value ([5]; safety set n=212) was 12, the “Serious AEs, incidence” value ([5]; safety set n=212) was “(0.9%)^c” and the “Serious AEs, number of patients” value ([5]; safety set n=212) was 2. The “Somnolence TEAE, number of patients” value ([5]; safety set n=212) was 39, the “Study withdrawal due to TEAE, incidence” value ([5]; safety set n=212) was “(5.2%)” and the “Study withdrawal due to TEAE, number of patients” value ([5]; safety set n=212) was 11. For the same compound, the “TEAE maximum severity Mild, incidence” value ([5]; safety set n=212) was “(35.8%)”, the “TEAE maximum severity Mild, number of patients” value ([5]; safety set n=212) was 76 and the “TEAE maximum severity Moderate, incidence” value ([5]; safety set n=212) was “(34.4%)”. For the same compound, the “TEAE maximum severity Moderate, number of patients” value ([5]; safety set n=212) was 73, the “TEAE maximum severity Severe, incidence” value ([5]; safety set n=212) was “(3.8%)” and the “TEAE maximum severity Severe, number of patients” value ([5]; safety set n=212) was 8. For the same compound, the “Treatment discontinuation due to TEAE, incidence” value ([5]; safety set n=212) was “(6.6%)”, the “Treatment discontinuation due to TEAE, number of patients” value ([5]; safety set n=212) was 14 and the “Tremor TEAE, incidence” value ([5]; safety set n=212) was “(5.2%)”. For the same compound, the “Tremor TEAE, number of patients” value ([5]; safety set n=212) was 11, the “Dizziness TEAE, incidence” value [5, 9] was 13.2% and the “Headache TEAE, incidence” value [5, 9] was 14.7%. For the same compound, the “Nausea TEAE, incidence” value [5, 9] was 9.0%, the “Serious AEs, incidence” value [5, 9] was 0.9% and the “Serious AEs, number of patients” value [5, 9] was “Two”. The “Somnolence TEAE, incidence” value [5, 9] was 18.4%, the “Gastrointestinal disorder TEAE, incidence” value ([5]; whole study) was 29.7% and the “Sexual Dysfunction TEAE, incidence” value ([5]; whole study) was 4.7%. For the same compound, the “Sleep Disorders TEAE, incidence” value ([5]; whole study) was 12.7%, the “Gastrointestinal disorder TEAE, number of patients” value ([5]; whole study, of 212) was 63 and the “Sexual Dysfunction TEAE, number of patients” value ([5]; whole study, of 212) was 10. For the same compound, the “Sleep Disorders TEAE, number of patients” value ([5]; whole study, of 212) was 27, the “Any TEAE, incidence” value [5, 10] was “(74.1%)” and the “Any TEAE, number of patients” value [5, 10] was 157. The “Any TEAE, incidence” value ([5]; zuranolone 50 mg + ADT, safety set n=212, whole study, listed as zuranolone+ADT) was 74.1%, the tolerability [5] was “generally well-tolerated” and the tolerability ([5]; listed as zuranolone co-initiated with an SOC ADT) was “generally well tolerated”.
